Results taken from paper PMC12498411, “Antidepressant-like Properties of a Selenium-Containing Pyridinium Salt Explored through In Vitro, In Vivo, and In Silico Approaches” (ACS Chemical Neuroscience, 2025).
Like-named read-outs stand apart in the source and are kept apart here.

Tests used:
[1] = test system: cerebral lipid peroxidation; experiment: TBARS assay, SNP-induced lipid peroxidation in brain homogenate; format: biochemical, mouse; conditions: for Concentrations effective in reversing SNP-induced oxidative damage (TBARS): tested up to 500 μM
Method: (§1) Brains from mice of both sexes were used for in vitro assays, each performed in duplicate across three independent experiments (n = 3), conducted on different days.
The brain tissues were homogenized in a 50 mM Tris-HCl buffer at pH 7.4, using a 1:10 ratio (w/v). The freshly prepared homogenate was then centrifuged at 900g for 10 min, yielding a low-speed supernatant (S1). Lipid peroxidation was evaluated using the TBARS method as previously described. Lipid peroxidation was induced by 0.3 mM SNP. A 100 μL aliquot of S1 was incubated for 1 h at 37 °C in the presence of the compounds 3A, 3B, and 3C at concentrations ranging from 25 to 500 μM, and SNP or water (to control). The color reaction was initiated by adding 500 μL of a 0.8% thiobarbituric acid (TBA) solution, followed by 200 μL of 8.1% sodium dodecyl sulfate (SDS) and 500 μL of acetic acid (pH 3.4). The reaction mixture was incubated at 95 °C for 1 h. The absorbance was measured using a spectrophotometer at a wavelength of 532 nm. Trolox (100 μM), an antioxidant analogous to vitamin E, served as a positive control. The results were reported as nmol TBARS per gram of tissue. A parallel TBARS experiment was also conducted using a standard alkyl aryl selenide (2-((phenylselanyl)-methyl)-pyridine), dissolved in DMSO at the same concentrations tested, ranging from 25 to 500 μM.

[2] = cited from earlier work
[3] = set-up: method as in Prigol and colleagues; conditions: 500 mg/kg dissolved in oil, per oral; ref Prigol and colleagues; cited from earlier work
[4] = set-up: method as in Prigol and colleagues; conditions: ref Prigol and colleagues; cited from earlier work
MAO-B = biological target: T1, MAO-B (Mus musculus, UniProt Q8BW75); experiment: Cerebral MAO-B activity, mitochondria-enriched mouse brain fraction (kynuramine, fluorimetric); format: biochemical
T1 construct: Mitochondria-enriched brain preparations were obtained in accordance with established methodology outlined in literature; from tissue; host or cells: mouse brain, mitochondria-enriched fraction
T1 sequence (Q8BW75 1-520): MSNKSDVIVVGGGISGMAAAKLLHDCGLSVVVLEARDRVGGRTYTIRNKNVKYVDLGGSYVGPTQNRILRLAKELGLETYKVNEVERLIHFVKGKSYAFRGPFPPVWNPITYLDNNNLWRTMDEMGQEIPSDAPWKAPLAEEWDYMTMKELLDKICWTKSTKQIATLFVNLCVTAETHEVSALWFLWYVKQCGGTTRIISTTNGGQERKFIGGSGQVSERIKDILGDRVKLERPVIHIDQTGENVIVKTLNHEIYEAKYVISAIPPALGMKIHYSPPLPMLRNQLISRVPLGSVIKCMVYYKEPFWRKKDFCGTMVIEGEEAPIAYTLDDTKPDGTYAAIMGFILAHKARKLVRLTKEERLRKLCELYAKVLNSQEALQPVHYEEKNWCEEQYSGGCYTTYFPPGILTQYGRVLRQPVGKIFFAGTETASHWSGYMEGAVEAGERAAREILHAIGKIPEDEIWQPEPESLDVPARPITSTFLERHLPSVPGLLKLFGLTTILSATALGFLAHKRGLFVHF
Method: (§2) Mitochondria-enriched brain preparations were obtained in accordance with established methodology outlined in literature. The homogenate was prepared using the mouse brain tissue and a homogenization buffer (Na2PO4/KH2PO4/sucrose) at a ratio of 1:4 (w/v). The homogenate was centrifuged at 900g at 4 °C for 5 min. The resulting supernatant was separated and subjected to centrifugation at 12,500g for 15 min. The resulting pellet was resuspended in the homogenization buffer and subjected to a further round of centrifugation under identical conditions. Finally, the mitochondrial pellet obtained was reconstituted in an assay buffer solution (Na2PO4/KH2PO4/KCl). Protein concentration was estimated using the Bradford method and standardized as 1 mg/mL for the experiments.
(§3) MAO activity was assessed following the method outlined by Krajl, with some modifications by Matsumoto. Briefly, a 100 μL aliquot of the mitochondria-rich fraction was incubated at 37 °C for 5 min with specific MAO inhibitors: clorgyline (250 nM, a MAO-A inhibitor), or pargyline (250 nM, a MAO-B inhibitor). Then, 10 μL of each compound was introduced at varying concentrations (25–200 μM). Water (10 μL) was used in the control tubes. Afterward, the substrate, 20 μL of kynuramine dihydrobromide, was added to achieve a final concentration of 90 μM for MAO-A and 60 μM for MAO-B. The samples were incubated at 37 °C for 30 min. The reaction was halted by the addition of 300 μL of 10% trichloroacetic acid (TCA). After centrifuging at 16,000g for 15 min, an aliquot of 800 μL of the supernatant was mixed with 1 mL of 1 M sodium hydroxide (NaOH). The samples were measured using a fluorimeter with excitation at 315 nm and emission at 380 nm.

female Swiss mice = test system: female Swiss mice; set-up: method as in previously conducted by our research group; conditions: same methodology layout; ref previously conducted by our research group; cited from earlier work
MAO-A = biological target: T2, MAO-A (Mus musculus, UniProt Q64133); experiment: Cerebral MAO-A activity, mitochondria-enriched mouse brain fraction (kynuramine, fluorimetric); format: biochemical
T2 construct: Mitochondria-enriched brain preparations were obtained in accordance with established methodology outlined in literature; from tissue; host or cells: mouse brain, mitochondria-enriched fraction
T2 sequence (Q64133 1-526): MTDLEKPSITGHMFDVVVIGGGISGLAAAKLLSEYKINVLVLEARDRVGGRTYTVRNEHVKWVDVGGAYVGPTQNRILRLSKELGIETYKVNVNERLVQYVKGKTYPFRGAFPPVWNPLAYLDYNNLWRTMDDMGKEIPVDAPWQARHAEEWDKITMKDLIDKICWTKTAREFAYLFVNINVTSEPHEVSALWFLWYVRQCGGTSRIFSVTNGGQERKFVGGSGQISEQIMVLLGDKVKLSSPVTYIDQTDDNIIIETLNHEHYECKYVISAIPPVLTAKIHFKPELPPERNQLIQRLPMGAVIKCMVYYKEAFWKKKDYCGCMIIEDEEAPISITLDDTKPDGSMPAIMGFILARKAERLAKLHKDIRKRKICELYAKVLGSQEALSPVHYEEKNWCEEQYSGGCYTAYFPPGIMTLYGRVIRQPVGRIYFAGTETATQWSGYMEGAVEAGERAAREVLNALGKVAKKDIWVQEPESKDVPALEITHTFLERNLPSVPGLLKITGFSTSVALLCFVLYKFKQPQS
Method: as §2, §3

protein carbonylation = experiment: Protein carbonylation assay, SNP-induced, brain homogenate; format: biochemical, mouse
Method: as §1
The evaluation of protein carbonylation was performed according to a previously established protocol, using freshly prepared brain homogenate diluted at a 1:8 ratio in Tris-HCl buffer. Test compounds (10 μL), ranging in concentrations from 25 to 200 μM, were individually introduced into separate test tubes. Trolox (100 μM) served as the standard antioxidant. The diluted brain homogenate (940 μL) was then added to all tubes, followed by SNP (1 mM) as the inducing oxidative agent (50 μL). The tubes were promptly incubated at 37 °C for 2 h. Following incubation, 2 M HCl was added to blank tubes (200 μL), while 10 mM 2,4-dinitrophenyl-hydrazine (DNPH) solution was added to test tubes (200 μL). The mixture was incubated for 1 h in darkness at room temperature, with intermittent stirring every 15 min to facilitate the color reaction. Subsequently, 500 μL of denaturation buffer, 1.5 mL of ethanol, and 1.5 mL of hexane were added to all tubes, which were then vigorously shaken for 40 s. The tubes were then centrifuged at 900g for 15 min, and the supernatant was carefully decanted. The resulting pellet was washed twice with 1 mL of ethanol/ethyl acetate solution (1:1). After allowing the pellet to dry air for 2 min, it was resuspended in 1 mL of denaturation buffer and subjected to spectrophotometric analysis at 370 nm. The findings were quantified as nmol carbonyl per gram of tissue.

male Swiss mice [5] = experiment: Open field test (OFT) before the TST; format: in vivo, mouse; conditions: 3B 0.5–5 mg/kg i.g.; fluoxetine 20 mg/kg i.p.
Method: (§4) A dosage of 5 mg/kg (intragastric route, i.g., by gavage) was administered to all groups receiving the salts. […] The TST was conducted 30 min following drug administration, with the OFT being performed 4 min prior to the TST.
(§5) Following the selection of the most promising salt during screening (Compound 3B), an analysis of the compound’s time-response curve was conducted in the mouse TST. For this purpose, the animals were divided into five groups: (I) control (water; i.g.), (II) the group receiving compound 3B 15 min prior to TST, (III) the group receiving compound 3B 30 min before TST, (IV) the group receiving compound 3B 60 min before TST, and (V) the group receiving compound 3B 120 min before TST. The dosage of salt was standardized at 5 mg/kg (i.g). OFT was conducted 4 min prior to the TST.
(§6) After choosing a suitable preadministration time, the dose–response curve of the compound at this fixed time was analyzed. The animals were categorized into […]: I) a control group (administered water; i.g.) and groups II, III, IV and V) receiving compound 3B at doses of 0.5 mg/kg, 1 mg/kg, 2.5 mg/kg, and 5 mg/kg (i.g.), respectively. […] Thirty minutes postadministration, the animals underwent the TST. Four minutes prior to the TST, they underwent the OFT.
The aim of this behavioral test is to assess the locomotion and exploration behavior of the animals using an open field apparatus measuring 30 cm × 30 cm × 15 cm, constructed from plywood with a floor divided into nine quadrants, facilitating free movement for the animals. During the OFT, the animals were positioned in the center of the apparatus and subjected to a 5 min testing period, following the protocol outlined in literature. The number of quadrant crossings and rearings was recorded and quantified during testing phase.

rodent = conditions: literature value, cited from earlier work
male Swiss mice [6] = experiment: Tail suspension test (TST); format: in vivo, mouse
Method: A behavioral screening was conducted using the three salts to determine their potential antidepressant-like actions (n = 7–9 mice/group).
as §4, §5, §6
This test aims to assess depressive-like behavior and antidepressant-like action of therapies by measuring immobility. […] The test was conducted using a mouse suspension box made of wood, measuring 50 cm × 21 cm × 21 cm, designed to prevent any visual or physical interaction among the animals. A suspension bar was positioned atop the box, and the mouse’s tail was affixed to the bar using adhesive tape. The test duration was 6 min, during which the animal’s latency to the first immobility episode and the total duration of immobility (sec) were assessed.

[7] = salts 5 mg/kg i.g., fluoxetine 20 mg/kg i.p., 30 min before test

Question: For `c1ccc([Se]Cc2ccccn2)cc1` [2-((phenylselanyl)methyl)pyridine, reference compound], which “Concentrations effective in reversing SNP-induced oxidative damage (TBARS)” value ([1]; mouse brain homogenate) is on record?
Answer: Its value is 500 µM.

Question: With `c1ccc([Se]c2c(-c3ccccc3)cn3ccccc23)cc1` [2-phenyl-1-(phenylselanyl)indolizine] as the compound, how does the “Effective dose (previously studied related molecule)” value [2] read?
Answer: Its value is at least 10 mg/kg.

Question: Which results are given for `c1ccc([Se][Se]c2ccccc2)cc1` [(PhSe)2, diphenyl diselenide]?
Answer: Selenium levels in plasma [3]: very low levels of selenium in plasma; Solubility in isotonic phosphate buffer [4]: poor solubility in isotonic phosphate buffer

Question: What does the source list for `O=C(C[n+]1ccccc1C[Se]c1ccccc1)c1ccc(Cl)cc1.[Br-]` [Compound 3C, 1-(2-(4-chlorophenyl)-2-oxoethyl)-2-((phenylselanyl)methyl)pyridin-1-ium bromide]?
Answer: IC50 ([1]; mouse brain homogenate, SNP-induced): 102 µM; Concentrations effective in reversing SNP-induced oxidative damage (TBARS) ([1]; mouse brain homogenate): 50 to 500 µM; IC50 (MAO-B): 125 µM; Signs of toxicity in acute oral toxicity study (female Swiss mice): no signs of toxicity; IC50 (MAO-A): 77.6 µM; Concentrations with significant inhibition of MAO-A activity (MAO-A; tested 25–200 μM, Dunnett vs control): ≥ 50 µM; IC50 (protein carbonylation; mouse brain homogenate, SNP-induced, 25–200 μM): 111 µM

Question: What does the source list for `CNCCC(Oc1ccc(C(F)(F)F)cc1)c1ccccc1` (stereo not drawn) [Fluoxetine, reference compound]?
Answer: OFT number of rearings, dose–response experiment (male Swiss mice [5]): decreased rearings; Reduction in rodent locomotor activity (rodent; 30 mg/kg): 89%; TST immobility time, positive control in dose–response experiment (male Swiss mice [6]; 20 mg/kg i.p., 30 min): effectively reduced the immobility time; TST latency time, positive control in dose–response experiment (male Swiss mice [6]; 20 mg/kg i.p., 30 min): as also observed in the fluoxetine group; TST latency time to first immobility episode, screening (male Swiss mice [6]; [7]): significantly increased latency time; TST total immobility time, screening (male Swiss mice [6]; [7]): shorter total immobility times

Question: With `Cc1c(C)c2c(c(C)c1O)CCC(C)(C(=O)O)O2` (stereo not drawn) [Trolox, reference compound] as the compound, how does the “Effect of positive control on SNP-induced TBARS” value ([1]; 100 μM) read?
Answer: The value was “effectively reversed oxidative damage”.

Question: What about the “Effect of positive control on protein carbonylation” value (protein carbonylation; 100 μM) of the same compound?
Answer: The value was “effective”.

Question: For `CN(C)CC/C=C1\c2ccccc2CSc2ccccc21` [dothiepin], which “Reduction in rodent locomotor activity” value (rodent; 10 mg/kg) is on record?
Answer: Its value is 73%.

Question: With `COc1ccc(C(CN(C)C)C2(O)CCCCC2)cc1` (stereo not drawn) [venlafaxine] as the compound, how does the “Reduction in rodent locomotor activity” value (rodent; 50 mg/kg) read?
Answer: Its value is 62%.
